Converted amounts (≈) assume the structure as drawn.
Legend:
[1] = test system: Escherichia coli clinical isolates; experiment: MIC against clinical isolates of E. coli (Statens Serum Institut, CLSI); format: cell-based
Protocol: (§1) MIC90 determination was performed
(§2) MIC against Clinical Isolates of E. coli.
(§3) Zebrafish Infection Model
(§4) carbenicillin (Carl Roth, Karlsruhe, Germany).3
(§5) Minimum inhibitory concentrations

Escherichia coli C175-94 = experiment: Murine urinary tract infection model; format: in vivo, C3H/HeNHsd mice; conditions: positive control, BID, day 4
Protocol: One IV dosing arm at 5 mg/kg was included for comparison. Mice were treated for 3 days post-inoculation, and the bacterial burden was determined on day 4.
In vivo urinary tract infection model. The murine urinary tract infection model was conducted at Statens Serum Institut in Copenhagen, Denmark under the supervision of the Danish Animal Ethical […]
Bacterial challenge organism: The challenge organism was Escherichia coli C175-94 (serotype O8:K48:H4), a clinical isolate elaborating type 1 fimbriae, previously used for developing and validating the urinary tract infecti on model.7
Animals: Upon arrival to Statens Serum Institut animal facility, female C3H/HeNHsd mice 5 -6 weeks old (Envigo, Netherlands), were randomized to 8 mice per cage and acclimatized 1 week before experimental start. Bedding was from Tapvei and Enviro -Dri nesting material and cardboard houses (Bio-serv) was offered as enrichment. Mice had free access to domestic quality drinking water and food […]
Mice were monitored twice daily for clinical symptoms of infection or discomfort and euthanized if reaching humane endpoints specified in the ethical permission […]
Dickinson, cat. […] Colony counts of urine were determined immediately. […]
OD540nm of the supernatant was measured and the hemolytic % was calculated following the formula: (OD test compound – OD blank)-(OD positive

[2] = test system: Acinetobacter baumannii ATCC17978; experiment: microbe, parasite or virus in culture; format: cell-based
Protocol: as §1, §2, §3, §4, §5

[3] = test system: Escherichia coli ATCC25922; set-up: method as in PMID 36308277, PMID 38093695; conditions: cited from earlier work
[4] = test system: Acinetobacter baumannii DSM30008; set-up: method as in PMID 36308277, PMID 38093695; conditions: cited from earlier work
[5] = test system: Pseudomonas aeruginosa PAO1; set-up: method as in PMID 36308277, PMID 38093695; conditions: cited from earlier work
[6] = test system: Acinetobacter baumannii ATCC17978; experiment: Zebrafish embryo model of A. baumannii infection; conditions: 10 mg/kg, caudal vein microinjection 3 hpi

Row | Compound | MIC ([1]; ATCC25922, E. coli ATCC25922) | MIC ([1]; E. coli 50639799) | MIC ([1]; E. coli C175-94) | MIC ([1]; E. coli DSA443) | MIC ([1]; E. coli EC 106-09 (ESBL)) | bacterial burden in urine, bladder, kidney (Escherichia coli C175-94) | MIC ([2]; ATCC17978, GFP-tagged A. baumannii ATCC17978) | MIC ([2]; ATCC17978, WT A. baumannii ATCC17978) | MIC E. coli [3] | MIC A. baumannii [4] | MIC P. aeruginosa [5] | clearance of A. baumannii infection within zebrafish embryos [6]
1 | CNC(C)C1CCC(N)C(OC2C(N)CC(N)C(OC3OCC(C)(O)C(NC)C3O)C2O)O1 (stereo not drawn) [Gentamicin, gentamicin] | 0.5 to 1 µg/mL (≈ 1.05 to 2.09 µM) | 16 to 32 µg/mL (≈ 33.5 to 67 µM) | 2 µg/mL (≈ 4.19 µM) | > 64 µg/mL | 1 to 2 µg/mL (≈ 2.09 to 4.19 µM) | reduction of bacterial burden below stasis level in all tissues | – | – | – | – | – | –
2 | N=C(N)NCCC[C@H](NC(=O)[C@H]1NC(=O)[C@H](CO)NC(=O)[C@H]2NC(=O)[C@H](CCC(N)=O)NC(=O)[C@@H](N)Cc3c[nH]c4c(cccc34)O[C@@H]2c2c[nH]c3cc(ccc23)[C@@H]1CCCN)C(=O)N[C@@H](Cc1c[nH]c2ccccc12)C(=O)O [Darobactin D69] | – | – | – | – | – | – | 1 µg/mL (≈ 0.919 µM) | 2 µg/mL (≈ 1.84 µM) | 1 µg/mL (≈ 0.919 µM) | 0.5 µg/mL (≈ 0.459 µM) | 1 µg/mL (≈ 0.919 µM) | completely cleared

Source: article PMC11650638, “In Vivo Activity Profiling of Biosynthetic Darobactin D22 against Critical Gram-Negative Pathogens” (ACS Infectious Diseases, 2024)
